Source: article PMC5788574 (The Journal of comparative neurology, 2017)
Where two headings read alike, the source gives them in different places.

Key:
nAChR α2β4 = nAChR α2β4 (Homo sapiens, UniProt P30926+Q15822); experiment: biochemical; assay type: binding
hβ4 nAChR subtypes = assay type: binding, human; conditions: read-out: Affinity for hβ4 nAChR subtypes; range over α4β4, α3β4, α2β4
hα2β2 nAChR = hα2β2 nAChR (Homo sapiens, UniProt P17787+Q15822); experiment: biochemical; assay type: binding
Sequence of hα2β2 nAChR (Q15822 27-529): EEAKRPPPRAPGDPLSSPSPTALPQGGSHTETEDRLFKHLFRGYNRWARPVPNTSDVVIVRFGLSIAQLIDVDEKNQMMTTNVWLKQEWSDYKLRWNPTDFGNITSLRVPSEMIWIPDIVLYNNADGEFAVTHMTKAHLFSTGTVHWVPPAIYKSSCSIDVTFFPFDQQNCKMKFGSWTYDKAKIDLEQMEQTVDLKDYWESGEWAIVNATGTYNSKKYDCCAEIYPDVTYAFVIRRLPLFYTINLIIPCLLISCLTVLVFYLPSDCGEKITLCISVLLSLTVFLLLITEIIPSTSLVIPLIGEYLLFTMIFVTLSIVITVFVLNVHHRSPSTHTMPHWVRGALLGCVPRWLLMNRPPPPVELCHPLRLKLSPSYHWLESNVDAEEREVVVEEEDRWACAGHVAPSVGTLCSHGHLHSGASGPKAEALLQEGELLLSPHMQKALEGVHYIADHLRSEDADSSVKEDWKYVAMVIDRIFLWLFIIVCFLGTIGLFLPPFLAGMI
Sequence of hα2β2 nAChR (P17787 26-502): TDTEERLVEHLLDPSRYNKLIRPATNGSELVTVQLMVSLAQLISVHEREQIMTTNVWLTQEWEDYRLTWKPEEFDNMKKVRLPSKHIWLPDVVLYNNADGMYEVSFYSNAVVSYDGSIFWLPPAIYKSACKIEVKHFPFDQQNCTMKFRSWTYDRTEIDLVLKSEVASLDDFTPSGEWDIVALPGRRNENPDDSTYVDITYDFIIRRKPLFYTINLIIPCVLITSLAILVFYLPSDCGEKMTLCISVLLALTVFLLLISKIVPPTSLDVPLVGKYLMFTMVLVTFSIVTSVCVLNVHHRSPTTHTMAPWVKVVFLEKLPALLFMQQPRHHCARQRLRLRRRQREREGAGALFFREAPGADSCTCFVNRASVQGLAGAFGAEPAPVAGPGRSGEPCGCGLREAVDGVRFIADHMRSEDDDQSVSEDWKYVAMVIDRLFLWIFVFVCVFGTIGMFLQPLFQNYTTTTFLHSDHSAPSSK

human α4β2 nAChR = experiment: [86Rb+]rubidium efflux functional assay, YXα4β2H1 cells; assay type: cell-based; conditions: for As Antagonist, α4β2 nAChR, inhibition of nicotine-stimulated 86Rb+ efflux: vs 100 μM nicotine
human α3β4 nAChR = experiment: [86Rb+]rubidium efflux functional assay, YXα3β4H1 cells; assay type: cell-based; conditions: for As Antagonist, α3β4 nAChR, inhibition of nicotine-stimulated 86Rb+ efflux: vs 100 μM nicotine
[1] = tested on: all other receptor subtypes tested; experiment: PDSP screen of other receptor subtypes at 10 μM; assay type: binding, human; conditions: significant inhibition >50%
nAChR α3β4 = nAChR α3β4 (Homo sapiens, UniProt P30926+P32297); assay type: binding
Sequence of nAChR α3β4 (P32297 32-505): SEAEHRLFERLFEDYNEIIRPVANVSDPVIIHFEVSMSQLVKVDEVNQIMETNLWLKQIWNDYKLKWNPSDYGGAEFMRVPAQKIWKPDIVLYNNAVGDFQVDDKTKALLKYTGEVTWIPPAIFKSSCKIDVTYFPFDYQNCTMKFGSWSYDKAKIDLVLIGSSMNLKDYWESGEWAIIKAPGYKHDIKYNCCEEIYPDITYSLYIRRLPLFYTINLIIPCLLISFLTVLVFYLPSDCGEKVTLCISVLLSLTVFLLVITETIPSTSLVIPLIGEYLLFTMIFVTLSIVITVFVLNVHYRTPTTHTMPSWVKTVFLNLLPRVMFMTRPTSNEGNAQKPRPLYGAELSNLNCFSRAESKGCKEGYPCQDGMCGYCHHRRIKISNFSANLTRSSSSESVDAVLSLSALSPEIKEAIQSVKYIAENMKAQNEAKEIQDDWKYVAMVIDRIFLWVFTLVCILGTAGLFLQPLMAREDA
Sequence of nAChR α3β4 (P30926 22-498): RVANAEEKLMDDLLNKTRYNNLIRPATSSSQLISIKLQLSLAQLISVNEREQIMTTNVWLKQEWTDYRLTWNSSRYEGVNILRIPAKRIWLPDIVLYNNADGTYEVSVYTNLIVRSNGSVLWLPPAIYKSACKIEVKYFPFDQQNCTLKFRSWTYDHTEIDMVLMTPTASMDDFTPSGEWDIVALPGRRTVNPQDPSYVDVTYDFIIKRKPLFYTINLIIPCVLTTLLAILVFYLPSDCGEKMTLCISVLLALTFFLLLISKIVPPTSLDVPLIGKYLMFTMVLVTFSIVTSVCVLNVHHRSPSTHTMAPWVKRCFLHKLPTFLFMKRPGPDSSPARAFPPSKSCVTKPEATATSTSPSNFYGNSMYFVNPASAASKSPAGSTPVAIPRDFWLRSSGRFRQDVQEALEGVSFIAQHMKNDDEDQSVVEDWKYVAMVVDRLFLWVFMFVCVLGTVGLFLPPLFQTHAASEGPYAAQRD

nAChR α4β4 = nAChR α4β4 (Homo sapiens, UniProt P30926+P43681); assay type: binding
Sequence of nAChR α4β4 (P43681 29-627): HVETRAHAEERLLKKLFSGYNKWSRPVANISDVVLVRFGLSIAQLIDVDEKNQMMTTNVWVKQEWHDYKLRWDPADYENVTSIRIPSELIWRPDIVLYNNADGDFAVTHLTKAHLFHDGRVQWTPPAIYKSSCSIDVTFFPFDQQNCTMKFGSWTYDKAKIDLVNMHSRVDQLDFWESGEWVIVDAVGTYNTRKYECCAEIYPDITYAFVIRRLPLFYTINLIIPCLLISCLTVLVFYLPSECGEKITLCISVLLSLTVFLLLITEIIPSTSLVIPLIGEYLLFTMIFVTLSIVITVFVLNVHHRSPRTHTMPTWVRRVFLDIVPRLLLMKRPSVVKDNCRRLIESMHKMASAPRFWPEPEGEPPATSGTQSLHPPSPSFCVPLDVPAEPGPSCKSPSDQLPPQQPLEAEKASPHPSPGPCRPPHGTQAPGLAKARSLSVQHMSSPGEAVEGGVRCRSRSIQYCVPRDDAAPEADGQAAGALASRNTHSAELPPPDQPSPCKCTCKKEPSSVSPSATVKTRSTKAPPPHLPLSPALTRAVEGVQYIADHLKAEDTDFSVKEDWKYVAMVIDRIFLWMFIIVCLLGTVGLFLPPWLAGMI
Sequence of nAChR α4β4 (P30926 22-498): as the sequence (P30926 22-498) above

hα4β2 nAChR = hα4β2 nAChR (Homo sapiens, UniProt P17787+P43681); assay type: binding; conditions: read-out: Ki α4β2; human cloned receptors, 3H-epibatidine
Sequence of hα4β2 nAChR (P17787 26-502): as the sequence (P17787 26-502) above
Sequence of hα4β2 nAChR (P43681 27-627): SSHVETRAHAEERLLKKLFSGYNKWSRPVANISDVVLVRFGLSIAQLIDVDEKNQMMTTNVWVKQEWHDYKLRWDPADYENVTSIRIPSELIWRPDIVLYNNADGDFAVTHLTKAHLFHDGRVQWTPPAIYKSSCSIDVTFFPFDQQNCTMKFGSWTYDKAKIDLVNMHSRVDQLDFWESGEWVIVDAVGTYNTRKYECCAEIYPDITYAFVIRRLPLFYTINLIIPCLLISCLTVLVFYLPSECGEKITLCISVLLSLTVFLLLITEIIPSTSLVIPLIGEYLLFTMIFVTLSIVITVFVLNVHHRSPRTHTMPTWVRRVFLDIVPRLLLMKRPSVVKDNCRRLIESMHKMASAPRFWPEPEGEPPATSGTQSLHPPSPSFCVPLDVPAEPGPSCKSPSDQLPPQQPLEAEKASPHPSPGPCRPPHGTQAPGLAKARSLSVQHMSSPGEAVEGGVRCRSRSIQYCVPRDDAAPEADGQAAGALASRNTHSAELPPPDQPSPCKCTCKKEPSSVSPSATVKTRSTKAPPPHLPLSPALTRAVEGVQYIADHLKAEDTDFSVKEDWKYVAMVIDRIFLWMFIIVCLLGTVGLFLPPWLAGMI

[2] = Expanded acute toxicity study, intravenous, rats; assay type: in vivo, Sprague-Dawley rats
hα3β2 nAChR = hα3β2 nAChR (Homo sapiens, UniProt P17787+P32297); assay type: binding
Sequence of hα3β2 nAChR (P17787 26-502): as the sequence (P17787 26-502) above
Sequence of hα3β2 nAChR (P32297 32-505): as the sequence (P32297 32-505) above

α7 nAChR = α7 nAChR (Rattus norvegicus, UniProt Q05941); assay type: binding; conditions: read-out: Ki α7; rat cloned receptors labeled with 125I-α-bungarotoxin
Sequence of α7 nAChR (Q05941 23-502): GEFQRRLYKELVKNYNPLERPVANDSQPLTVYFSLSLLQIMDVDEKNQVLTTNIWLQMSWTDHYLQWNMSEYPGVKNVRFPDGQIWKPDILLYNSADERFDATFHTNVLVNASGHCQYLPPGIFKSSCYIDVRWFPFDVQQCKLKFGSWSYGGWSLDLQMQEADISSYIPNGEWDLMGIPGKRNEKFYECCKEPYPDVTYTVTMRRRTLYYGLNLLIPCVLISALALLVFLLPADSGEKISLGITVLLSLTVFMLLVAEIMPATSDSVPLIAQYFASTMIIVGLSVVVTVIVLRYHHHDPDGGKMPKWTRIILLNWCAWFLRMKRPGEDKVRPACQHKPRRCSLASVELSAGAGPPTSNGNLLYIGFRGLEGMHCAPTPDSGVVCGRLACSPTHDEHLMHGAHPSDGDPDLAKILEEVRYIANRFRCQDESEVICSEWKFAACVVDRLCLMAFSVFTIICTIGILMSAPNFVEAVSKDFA

[3] = 100 μM, 100 μM nicotine as 100%
[4] = [α4β2 affinity/other receptor affinity]×100, human α4β2 affinities

Sequence of nAChR α2β4 (Q15822 27-529): as the sequence (Q15822 27-529) above
Sequence of nAChR α2β4 (P30926 22-498): as the sequence (P30926 22-498) above

SMILES: CN1CCC[C@H]1c1cccnc1 [Nicotine, reference compound]
- Ki (nAChR α2β4): 82.7 nM
- Ki (hβ4 nAChR subtypes): 27 to 219 nM
- Ki (hα2β2 nAChR): 3.64 nM

SMILES: Fc1ncccc1OC[C@@H]1C=CCN1 [Nifene]
- As Antagonist, α4β2 nAChR, inhibition of nicotine-stimulated 86Rb+ efflux (human α4β2 nAChR; 1 μM): 18%
- As Antagonist, α4β2 nAChR, inhibition of nicotine-stimulated 86Rb+ efflux (human α4β2 nAChR; 10 μM): 21%
- As Agonist, α4β2 nAChR, stimulated 86Rb+ efflux (human α4β2 nAChR; [3]): 14%
- As Antagonist, α4β2 nAChR, inhibition of nicotine-stimulated 86Rb+ efflux (human α4β2 nAChR; 100 μM): 56%
- As Antagonist, α3β4 nAChR, inhibition of nicotine-stimulated 86Rb+ efflux (human α3β4 nAChR; 1 μM): 9%
- As Antagonist, α3β4 nAChR, inhibition of nicotine-stimulated 86Rb+ efflux (human α3β4 nAChR; 10 μM): 16%
- As Agonist, α3β4 nAChR, stimulated 86Rb+ efflux (human α3β4 nAChR; [3]): 35%
- As Antagonist, α3β4 nAChR, inhibition of nicotine-stimulated 86Rb+ efflux (human α3β4 nAChR; 100 μM): 59%
- % human α4β2 Selectivity, α2β4 (nAChR α2β4; [4]): 1.58%
- Ki (nAChR α2β4; read-out: Ki α2β4, human cloned receptors, 3H-epibatidine): 52.4 nM
- Affinity at all other receptor subtypes tested [1]: did not exhibit significant affinity
- % human α4β2 Selectivity, α3β4 (nAChR α3β4; [4]): 0.44%
- Ki (nAChR α3β4; read-out: Ki α3β4, human cloned receptors, 3H-epibatidine): 190 nM
- % human α4β2 Selectivity, α4β4 (nAChR α4β4; [4]): 3.05%
- Ki (nAChR α4β4; read-out: Ki α4β4, human cloned receptors, 3H-epibatidine): 27.2 nM
- Ki (hβ4 nAChR subtypes): 27 to 219 nM
- Ki (hα4β2 nAChR): 0.83 nM
- Tolerability of intravenous injections ([2]; Sprague-Dawley male and female rats, 1.6, 20 and 40 μg/kg/day): well tolerated
- Morbidity or mortality ([2]; rats, up to 40 μg/kg/day i.v.): no morbidity or mortality
- % human α4β2 Selectivity, α3β2 (hα3β2 nAChR; [4]): 104%
- Ki (hα3β2 nAChR; read-out: Ki α3β2, human cloned receptors, 3H-epibatidine): 0.8 nM
- Ki (α7 nAChR): 169 nM
- Fold higher affinity for α2β2 compared to α3β2 and α4β2 subtypes (hα2β2 nAChR): approximately 5 fold
- % human α4β2 Selectivity, α2β2 (hα2β2 nAChR; [4]): 244%
- Ki (hα2β2 nAChR; read-out: Ki α2β2, human cloned receptors, 3H-epibatidine): 0.34 nM
